Test system: endocrine progenitors
Assay: Differentiation of iPSC-derived endocrine progenitors towards immature beta cells, marker expression with tested reagent combinations
Format: cell-based, human
Details: addition of the reagent during differentiation of endocrine progenitors into beta cells
Procedure: FIG. 31. Expression of DAPI, C-Peptide, Glucagon and NKX6.1 when testing various compounds at day 23.
FIG. 32. Measurement of DAPI, C-Peptide, Glucagon and NKX6.1 expression across tested compound combinations.
To further differentiate endocrine progenitors into beta cells, various reagents were tested to determine which combinations are most efficient in generating immature beta cells. T3 was selected for its role in beta cell survival, function, and identity Alk5 inhibitor II was selected for its specificity in inhibition of TGF beta receptor 1. XXI was selected as Notch inhibitor to exit cell cycle and as a driving force between endocrine vs duct phenotypes. Noggin is selected for BMP inhibition due to evidence that inhibition of this pathway is important for endocrine differentiation. Addition of notch inhibitor XXI reduced NKX6.1 levels and increased glucagon levels. […] The aforementioned growth factors can be used in combination for immature beta cell production. Thereafter, there is a need for a maturation step to induce glucose sensitivity on immature induced-islet cells

## C[C@H](NC(=O)Cc1cc(F)cc(F)c1)C(=O)N[C@H]1N=C(c2ccccc2)c2ccccc2N(C)C1=O [XXI]
  NKX6.1 levels: reduced
  glucagon levels: increased

## noggin
  c-peptide levels: slightly increases

— patent US12161676B2, “Methods of use of islet cells” (CEDARS-SINAI MEDICAL CENTER, priority 2018, dated 2024)
